Test results published in PubChem BioAssay AID192 (DTP/NCI, 2004).
“And” between values parts separate entries of the source, which are not always exact repeats. Identical values can stand only once. Toxic doses and inconclusive results are not listed. The calls were made as follows: active = survival T/C of 150% or more; inactive = T/C below 125% in these data.

Tested on: BDF1 mice, B16 melanoma ip, median survival T/C
Assay: NCI In Vivo Anticancer Drug Screen. Data for tumor model B16 Melanoma (intraperitoneal) in B6D2F1 (BDF1) mice
Conditions: endpoint: median survival time, higher = longer survival
Method in brief: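 Survival or tumor size is measured after treatment of tumor-bearing mice and normalised to the vehicle-treated control group.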

[1] = dose: 6.25 mg/kg/injection, schedule: Q01DX009 (ip), vehicle: saline with Tween-80
[2] = dose: 12.5 mg/kg/injection, schedule: Q01DX009 (ip), vehicle: saline with Tween-80
[3] = dose: 25.0 mg/kg/injection, schedule: Q01DX009 (ip), vehicle: saline with Tween-80
[4] = dose: 50.0 mg/kg/injection, schedule: Q01DX009 (ip), vehicle: saline with Tween-80
[5] = dose: 100.0 mg/kg/injection, schedule: Q01DX009 (ip), vehicle: saline with Tween-80
[6] = dose: 100.0 mg/kg/injection, schedule: Q01DX009 (ip), vehicle: Klucel (hydroxypropylcellulose) (HPC)
[7] = dose: 200.0 mg/kg/injection, schedule: Q01DX009 (ip), vehicle: Klucel (hydroxypropylcellulose) (HPC)
[8] = dose: 400.0 mg/kg/injection, schedule: Q01DX009 (ip), vehicle: Klucel (hydroxypropylcellulose) (HPC)
[9] = dose: 25.0 mg/kg/injection, schedule: Q01DX009 (ip), vehicle: Klucel (hydroxypropylcellulose) (HPC)
[10] = dose: 20.0 mg/kg/injection, schedule: Q01DX009 (ip), vehicle: saline with Tween-80
[11] = dose: 50.0 mg/kg/injection, schedule: Q01DX009 (ip), vehicle: Klucel (hydroxypropylcellulose) (HPC)
[12] = dose: 3.12 mg/kg/injection, schedule: Q01DX009 (ip), vehicle: Klucel (hydroxypropylcellulose) (HPC)
[13] = dose: 6.25 mg/kg/injection, schedule: Q01DX009 (ip), vehicle: Klucel (hydroxypropylcellulose) (HPC)
[14] = dose: 12.5 mg/kg/injection, schedule: Q01DX009 (ip), vehicle: Klucel (hydroxypropylcellulose) (HPC)

Measured: T/C

OCCOCC(F)(F)F
inactive: [1] 94 % of control and 112 % of control | [2] 99 % of control and 104 % of control | [3] 97 % of control and 103 % of control | [4] 92 % of control and 105 % of control | dose: 75.0 mg/kg/injection, schedule: Q01DX009 (ip), vehicle: saline with Tween-80 93 % of control | [5] 102 % of control and 103 % of control | dose: 150.0 mg/kg/injection, schedule: Q01DX009 (ip), vehicle: saline with Tween-80 88 % of control | dose: 200.0 mg/kg/injection, schedule: Q01DX009 (ip), vehicle: saline with Tween-80 94 % of control and 105 % of control

COc1cc2ccc3c[n+]4ccccc4cc3c2cc1OC
inactive: dose: 25.0 mg/kg/injection, schedule: Q04DX009 (ip), vehicle: Klucel (hydroxypropylcellulose) (HPC) 97 % of control | dose: 50.0 mg/kg/injection, schedule: Q04DX009 (ip), vehicle: Klucel (hydroxypropylcellulose) (HPC) 93 % of control | dose: 100.0 mg/kg/injection, schedule: Q04DX009 (ip), vehicle: Klucel (hydroxypropylcellulose) (HPC) 89 % of control | dose: 150.0 mg/kg/injection, schedule: Q04DX009 (ip), vehicle: Klucel (hydroxypropylcellulose) (HPC) 95 % of control

COc1ccc(NC(=O)Oc2c(C(C)C)cccc2C(C)C)cc1
inactive: [6] 96 % of control | dose: 100.0 mg/kg/injection, schedule: Q04DX003 (ip), vehicle: Klucel (hydroxypropylcellulose) (HPC) 110 % of control | [7] 96 % of control | dose: 200.0 mg/kg/injection, schedule: Q04DX003 (ip), vehicle: Klucel (hydroxypropylcellulose) (HPC) 103 % of control | [8] 89 % of control | dose: 400.0 mg/kg/injection, schedule: Q04DX003 (ip), vehicle: Klucel (hydroxypropylcellulose) (HPC) 103 % of control

CC(C)N(C(=O)c1ccccc1Cl)c1ccccc1
inactive: [9] 93 % of control | [6] 106 % of control

CN1C2C=C(c3ccccc3)C(Br)C1CC2 (stereo not given)
inactive: [10] 98 % of control | dose: 20.0 mg/kg/injection, schedule: Q04DX003 (ip), vehicle: saline with Tween-80 100 % of control | dose: 40.0 mg/kg/injection, schedule: Q01DX009 (ip), vehicle: saline with Tween-80 91 % of control | dose: 40.0 mg/kg/injection, schedule: Q04DX003 (ip), vehicle: saline with Tween-80 104 % of control | dose: 80.0 mg/kg/injection, schedule: Q04DX003 (ip), vehicle: saline with Tween-80 88 % of control

CC1(C)OCC(C2CCC3(C)C4=CCC5C(C)(C)C(O)CCC5(C)C4CCC23C)CC(O)C1O (stereo not given)
inactive: dose: 5.0 mg/kg/injection, schedule: Q01DX009 (ip), vehicle: Klucel (hydroxypropylcellulose) (HPC) 118 % of control | dose: 10.0 mg/kg/injection, schedule: Q01DX009 (ip), vehicle: Klucel (hydroxypropylcellulose) (HPC) 102 % of control

CCCC1CC[N-]CC1.CCCC1CC[N-]CC1.[Br][Pt+2]([Br])([Br])[Br]
inactive: dose: 3.13 mg/kg/injection, schedule: Q01DX009 (ip), vehicle: water 98 % of control | dose: 6.25 mg/kg/injection, schedule: Q01DX009 (ip), vehicle: water 102 % of control | dose: 12.5 mg/kg/injection, schedule: Q01DX009 (ip), vehicle: water 97 % of control

O=c1cc[nH]c(=O)[nH]1
inactive: dose: 32.0 mg/kg/injection, schedule: Q01DX009 (ip), vehicle: Klucel (hydroxypropylcellulose) (HPC) 99 % of control and 100 % of control | dose: 32.0 mg/kg/injection, schedule: Q01DX009 (ip), vehicle: saline with Tween-80 93 % of control | dose: 64.0 mg/kg/injection, schedule: Q01DX009 (ip), vehicle: Klucel (hydroxypropylcellulose) (HPC) 98 % of control and 106 % of control | dose: 64.0 mg/kg/injection, schedule: Q01DX009 (ip), vehicle: saline with Tween-80 93 % of control | dose: 128.0 mg/kg/injection, schedule: Q01DX009 (ip), vehicle: Klucel (hydroxypropylcellulose) (HPC) 101 % of control and 106 % of control | dose: 128.0 mg/kg/injection, schedule: Q01DX009 (ip), vehicle: saline with Tween-80 98 % of control | dose: 256.0 mg/kg/injection, schedule: Q01DX009 (ip), vehicle: Klucel (hydroxypropylcellulose) (HPC) 100 % of control and 102 % of control | dose: 256.0 mg/kg/injection, schedule: Q01DX009 (ip), vehicle: saline with Tween-80 90 % of control | dose: 512.0 mg/kg/injection, schedule: Q01DX009 (ip), vehicle: Klucel (hydroxypropylcellulose) (HPC) 102 % of control and 105 % of control | dose: 512.0 mg/kg/injection, schedule: Q01DX009 (ip), vehicle: saline with Tween-80 92 % of control

CN(C)N=Nc1ccnc2c(Br)cccc12
inactive: dose: 14.4 mg/kg/injection, schedule: Q01DX009 (ip), vehicle: DMSO 90 % of control | dose: 24.0 mg/kg/injection, schedule: Q01DX009 (ip), vehicle: DMSO 97 % of control | dose: 40.0 mg/kg/injection, schedule: Q01DX009 (ip), vehicle: DMSO 90 % of control | dose: 66.7 mg/kg/injection, schedule: Q01DX009 (ip), vehicle: DMSO 101 % of control

COC(=O)C1=CCCN(C)C1
inactive: dose: 3.12 mg/kg/injection, schedule: Q01DX009 (ip), vehicle: saline 100 % of control | dose: 6.25 mg/kg/injection, schedule: Q01DX009 (ip), vehicle: saline 115 % of control | dose: 12.5 mg/kg/injection, schedule: Q01DX009 (ip), vehicle: saline 100 % of control | dose: 25.0 mg/kg/injection, schedule: Q01DX009 (ip), vehicle: saline 92 % of control | dose: 50.0 mg/kg/injection, schedule: Q01DX009 (ip), vehicle: saline 115 % of control

O=C/C(Cl)=C(/Cl)C(=O)O
inactive: dose: 2.5 mg/kg/injection, schedule: Q01DX009 (ip), vehicle: saline with Tween-80 99 % of control | dose: 5.0 mg/kg/injection, schedule: Q01DX009 (ip), vehicle: saline with Tween-80 87 % of control | dose: 10.0 mg/kg/injection, schedule: Q01DX009 (ip), vehicle: saline with Tween-80 102 % of control | [10] 106 % of control

O=c1oc(-c2ccccc2Cl)nc2cc(Cl)ccc12
inactive: [9] 113 % of control | [11] 90 % of control

COC1=CC(=O)C(O)=C(CC2(C)C(C)CCC3(C)C2CCCC3(C)C)C1=O (stereo not given)
inactive: [12] 91 % of control | [13] 96 % of control | [14] 96 % of control | [9] 104 % of control | [11] 100 % of control | [6] 100 % of control

CCCCCCCCCCCCNC(=O)CCl
inactive: [6] 104 % of control | [7] 102 % of control | [8] 100 % of control

CC(=O)CC(=O)Nc1cccc([N+](=O)[O-])c1
inactive: [9] 100 % of control | [6] 94 % of control

CSc1nc(NC(C)C)nc(NC(C)C)n1
inactive: [3] 102 % of control | [4] 92 % of control | [5] 102 % of control

O=CNC(CSC(=O)c1ccccc1)C(=O)O (stereo not given)
inactive: [11] 100 % of control | [6] 100 % of control | [7] 94 % of control

NCCS(=O)(=O)O
inactive: dose: 100.0 mg/kg/injection, schedule: Q01DX009 (ip), vehicle: saline 105 % of control | dose: 200.0 mg/kg/injection, schedule: Q01DX009 (ip), vehicle: saline 107 % of control | dose: 400.0 mg/kg/injection, schedule: Q01DX009 (ip), vehicle: saline 110 % of control | dose: 800.0 mg/kg/injection, schedule: Q01DX009 (ip), vehicle: saline 102 % of control

CCCC(=O)OCC1OC(n2cnc3c(=S)nc(N)[nH]c32)C(OC(=O)CCC)C1OC(=O)CCC (stereo not given)
inactive: dose: 0.78 mg/kg/injection, schedule: Q01DX009 (ip), vehicle: Klucel (hydroxypropylcellulose) (HPC) 106 % of control | dose: 1.56 mg/kg/injection, schedule: Q01DX009 (ip), vehicle: Klucel (hydroxypropylcellulose) (HPC) 112 % of control | [12] 113 % of control | [13] 103 % of control and 106 % of control | [14] 87 % of control

COC(=O)c1cc(C)c(Br)c(N)c1
inactive: dose: 37.5 mg/kg/injection, schedule: Q04DX003 (ip), vehicle: Klucel (hydroxypropylcellulose) (HPC) 97 % of control | dose: 75.0 mg/kg/injection, schedule: Q04DX003 (ip), vehicle: Klucel (hydroxypropylcellulose) (HPC) 92 % of control | dose: 150.0 mg/kg/injection, schedule: Q04DX003 (ip), vehicle: Klucel (hydroxypropylcellulose) (HPC) 94 % of control

CCCCCCCCCCCCCC(=O)CCC
inactive: [9] 105 % of control | [11] 101 % of control | dose: 100.0 mg/kg/injection, schedule: Q01DX009 (ip), vehicle: other 88 % of control

NC(=S)Nc1cccc2ccccc12
inactive: [1] 99 % of control | [2] 95 % of control | [3] 97 % of control
